Positions count from the first letter of the chain named.

Results on two compounds are retold here after patent publication US7700277B2, “Use of polymorphisms in human OATP-C associated with an effect on statin pharmacokinetics in humans in statin therapy” (AstraZeneca AB, priority 2003, dated 2010).

In data set [1] the test system is OATP-C. Kind of data set: Dose-normalised plasma rosuvastatin concentrations by OATP-C genotype/haplotype in patients treated for 6 weeks. It counts as in vivo, human. An excerpt:
In brief, the OATP-C gene was sequenced in 79 human clinical trial subjects. 52 of these patients had received rosuvastatin for at least 6 weeks for dislipidaemic disease and had plasma PK measurements taken after 6 weeks of treatment.
The promoter, exons and 3′ untranslated regions of OATP-C were fully sequenced by DNA terminator sequencing in DNA collected from 79 subjects in clinical trials. Sequencing traces were used to record the genotypes for known (i.e. available in the literature or SNP databases) SNPs in OATP-C. Some novel SNPs were found in the promoter and 3′UTR region of OATP-C.
Mean dose-normalised plasma rosuvastatin concentrations were determined for the genotypes for each polymorphic variant in the OATP-C gene. OATP-C genotype data for 3 SNPs, namely amino acid position 130 Asparagine→Aspartic acid (Asn130Asp), 155 Proline→Threonine (Pro 155Thr) and 174 Valine→Alanine (Val174Ala), was utilised to determine the haplotype pair for each subject. Mean dose-normalised plasma rosuvastatin concentrations were determined for the subjects grouped by haplotype pair.
All consenting subjects treated with rosuvastatin (n=271), from the 2 clinical trials including the original 52 patients, were subsequently genotyped, using TaqMan™, for OATP-C variants. Data for SNPs causing the N130D, P155T and V174A variants were utilised to assign OATPC haplotype pairs to each subject, as previously described.

The target of data set [2] is T1, OATP-C (Homo sapiens, UniProt Q9Y6L6).
T1 sequence (Q9Y6L6 1-691): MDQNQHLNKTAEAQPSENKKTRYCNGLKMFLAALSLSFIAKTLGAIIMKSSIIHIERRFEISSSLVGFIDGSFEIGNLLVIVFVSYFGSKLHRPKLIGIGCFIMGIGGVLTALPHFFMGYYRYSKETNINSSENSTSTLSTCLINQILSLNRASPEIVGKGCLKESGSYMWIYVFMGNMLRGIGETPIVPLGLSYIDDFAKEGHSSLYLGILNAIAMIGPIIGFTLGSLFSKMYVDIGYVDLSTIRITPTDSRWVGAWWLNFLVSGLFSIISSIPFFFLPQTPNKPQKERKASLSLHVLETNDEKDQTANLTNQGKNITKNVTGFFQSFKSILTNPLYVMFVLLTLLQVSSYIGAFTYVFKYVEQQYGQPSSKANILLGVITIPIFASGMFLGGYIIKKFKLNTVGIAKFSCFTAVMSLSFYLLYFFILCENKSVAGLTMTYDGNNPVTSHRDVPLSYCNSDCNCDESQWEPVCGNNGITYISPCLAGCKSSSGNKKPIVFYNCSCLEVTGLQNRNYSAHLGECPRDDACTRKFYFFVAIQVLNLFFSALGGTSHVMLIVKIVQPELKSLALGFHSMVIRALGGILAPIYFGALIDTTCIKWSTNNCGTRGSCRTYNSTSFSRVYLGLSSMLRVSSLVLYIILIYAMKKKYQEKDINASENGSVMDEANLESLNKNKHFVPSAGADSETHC
The settings on record: literature reports (Brown 2001, in vitro; Hsiang 1999); cited from earlier work.

The target in data set [3] is T2, OATP-C (Homo sapiens, UniProt Q9Y6L6, N130D/V174A).
T2 construct: host or cells: human volunteers (in vivo)
T2 sequence (Q9Y6L6 1-691 N130D/V174A): T1 sequence (Q9Y6L6 1-691) with N130D, V174A
The conditions noted are these: Japanese healthy volunteers; Nishizato 2003; cited from earlier work.

In data set [4] the test system is OATP-C. The conditions noted are these: cohort of healthy volunteers; Niemi 2004; cited from earlier work.

Consider `CC(C)c1nc(N(C)S(C)(=O)=O)nc(-c2ccc(F)cc2)c1/C=C/[C@@H](O)C[C@@H](O)CC(=O)O` [rosuvastatin], for which the “dose-normalised plasma rosuvastatin values, 174Ala variant vs wild type” value in data set [1] (FIG. 1, 52 subjects, Val174Ala heterozygote vs wild-type homozygote, after 6 weeks of treatment) is given as “higher plasma concentrations”. For the same compound, the “dose-normalised plasma rosuvastatin values, OATP-C*15 haplotype vs other haplotypes” value in data set [1] (FIG. 2, haplotype pairs, after 6 weeks of treatment) was “higher plasma concentrations”. The “mean plasma rosuvastatin levels (dose normalised), Val174Ala heterozygous vs Val/Val” value in data set [1] (FIG. 3, patients treated 6 weeks with different doses, most evident at higher doses) was “higher”. The “mean plasma rosuvastatin concentrations, az0005537 (-118A>C) A/C heterozygous vs A/A” value in data set [1] (FIG. 4, two independent phase III studies) was “trend for an increase”. For the same compound, the “mean plasma rosuvastatin concentrations, 174A variant with az0005537 C allele vs az0005537 A allele” value in data set [1] (FIG. 5, combined 2 phase III studies, V174A heterozygotes stratified by promoter genotype) was “tendency for higher mean plasma rosuvastatin concentrations”. Moreover, the “effect of OATP-C variants N130D and P155T on pharmacokinetic disposition” value in data set [1] (patients, dose-normalised plasma levels) is “do not appear to affect”. Further, the “substrate / transport by OATP-C” value in data set [2] is listed as “substrate for OATP-C”.
Regarding `CC[C@H](C)C(=O)O[C@H]1C[C@H](O)C=C2C=C[C@H](C)[C@H](CC[C@@H](O)C[C@@H](O)CC(=O)O)[C@H]21` [pravastatin], the “substrate / transport by OATP-C” value in data set [2] is reported as “actively transported”. In data set [3], the “effect of OATPC*15 allele (N130D and V174A) on pharmacokinetics” value was “had an effect”. In data set [4], the “correlation between PK and a haplotype containing a promoter SNP” value is listed as “significant correlation”.
